SMILES strings stand for the structures. “And” between values parts separate entries of the source, which are not always exact repeats. Equal entries are not always repeated.

The subject of this data set is blood-brain barrier. The data set can be described thus: Histological examination of blood-brain barrier leakage of Evans blue dye after external heating. To be noted: one line per animal. It counts as in vivo, mice. The source says: Staining of the blood-brain barrier is a traditional method for evaluating blood-brain barrier leakage. Evans Blue dye, an exogenous tracer, is used to assess the integrity of the blood-brain barrier following a hyperthermic disruption. The dye molecules are able to easily diffuse through the fenestrated endothelial cells of all capillaries except those of the brain due to a functional blood-brain barrier. However, once the blood-brain barrier is compromised, Evans blue enters the brain and it fluoresces with excitation peaks at 470 and 540 nm and an emission peak at 680 nm. Histological staining techniques can therefore reflect the extent of blood-brain barrier leakage by studying the intensity of Evans blue dye in the brain.
Phase ii. The purpose of this part of the experiment was to examine the feasibility of hyperthermic disruption of the blood-brain barrier as well as its recovery period from thermal damage using Evans blue staining technique. Here, nine mice, each 6-8 weeks of age, were randomly divided into three identical groups. In contrast to the previous part, no holes were drilled into the exposed surface of the skull of these animals. In order to correlate temperature patterns with stains left from the Evans blue dye, the heating parameters for all groups were kept the same as was described in the first part of this experiment. […]

On to `Cc1cc(-c2ccc(/N=N/c3ccc4c(S(=O)(=O)O)cc(S(=O)(=O)O)c(N)c4c3O)c(C)c2)ccc1/N=N/c1ccc2c(S(=O)(=O)O)cc(S(=O)(=O)O)c(N)c2c1O` [Evans blue], for which the “Diameter of BBB leakage of Evans blue (mm)” value is, setting by setting: (Group I Hyperthermic Disruption, 30 min heating near Bregma, sacrificed one hour after dye) 0 mm and 4.22 mm and 2.46 mm; (Group II Recovery from Hyperthermia, dye injected 2 hours after 30 min thermal treatment) 0 mm and 0.62 mm and 1.98 mm.

The values are drawn from US20150126964A1, “DRUG DELIVERY ACROSS THE BLOOD-BRAIN BARRIER USING MAGNETICALLY HEATABLE ENTITIES” (CORPORATION DE L'ECOLE POLYTECHNIQUE DE MONTREAL, priority 2012, published 2015).
